From ChEMBL document CHEMBL5696443 (Clin Cancer Res, 2016)
Calls of active or inactive are those of the source. The calls are words filed in the database; no cut-off is given here.

Experiments:
[1] = molecular target: Serine/threonine-protein kinase Nek2 (Homo sapiens) (UniProt P51955); assay: Inhibition of human NEK2 at 1 uM using MBP substrate in presence of [gamma33P]-ATP by HotSpot assay relative to control
[2] = molecular target: Homeodomain-interacting protein kinase 4 (Homo sapiens) (UniProt Q8NE63); assay: Inhibition of human HIPK4 at 1 uM using MBP as substrate in presence of [gamma33P]-ATP by HotSpot assay relative to control
[3] = molecular target: Casein kinase II subunit alpha' (Homo sapiens) (UniProt P19784); assay: Inhibition of human CK2a2 at 1 uM using RRRDDDSDDD as substrate in presence of [gamma33P]-ATP by HotSpot assay relative to control
[4] = molecular target: Serine/threonine-protein kinase PLK2 (Homo sapiens) (UniProt Q9NYY3); assay: Inhibition of human PLK2 at 1 uM using casein as substrate in presence of [gamma33P]-ATP by HotSpot assay relative to control
[5] = molecular target: Mitogen-activated protein kinase 3 (Homo sapiens) (UniProt P27361); assay: Inhibition of human MAPK3 at 1 uM using MBP as substrate in presence of [gamma33P]-ATP by HotSpot assay relative to control
[6] = molecular target: Insulin-like growth factor 1 receptor (Homo sapiens, UniProt P08069); assay: Inhibition of human IGF1R using KKKSPGEYVNIEFG as substrate in presence of [gamma33P]-ATP by HotSpot assay
[7] = molecular target: Receptor tyrosine-protein kinase erbB-2 (Homo sapiens, UniProt P04626); assay: Inhibition of human ERBB2 using poly (Glu, Tyr)4:1 as substrate in presence of [gamma33P]-ATP by HotSpot assay
[8] = molecular target: Hepatocyte growth factor receptor (Homo sapiens, UniProt P08581); assay: Inhibition of human MET at 1 uM using poly (Glu, Tyr)4:1 as substrate in presence of [gamma33P]-ATP by HotSpot assay relative to control
[9] = molecular target: Tyrosine-protein kinase TXK (Homo sapiens) (UniProt P42681); assay: Inhibition of human TXK at 1 uM using EAIYAAPFAKKK as substrate in presence of [gamma33P]-ATP by HotSpot assay relative to control
[10] = molecular target: CDK6/cyclin D3 (Homo sapiens) (UniProt P30281+Q00534); assay: Inhibition of human CDK6/CyclinD3 at 1 uM using RB protein as substrate in presence of [gamma33P]-ATP by HotSpot assay relative to control; assay type: protein-complex assay
[11] = molecular target: Serine/threonine-protein kinase PLK3 (Homo sapiens) (UniProt Q9H4B4); assay: Inhibition of human PLK3 at 1 uM using casein as substrate in presence of [gamma33P]-ATP by HotSpot assay relative to control
[12] = molecular target: Protein kinase C theta type (Homo sapiens) (UniProt Q04759); assay: Inhibition of human PKCtheta at 1 uM using ERMRPRKRQGSVRRRV as substrate in presence of [gamma33P]-ATP by HotSpot assay relative to control
BaF3 = assay: Antitumor activity against mouse BaF3 cells expressing EML4-ALK L1196M mutant implanted in mouse assessed as tumor regression at 50 mg/kg, po administered once daily and measured after 8 days relative to control; assay type: functional; conditions: time 8 day
[13] = molecular target: Ephrin type-A receptor 4 (Homo sapiens) (UniProt P54764); assay: Inhibition of human EPHA4 at 1 uM using poly (Glu, Tyr)4:1 as substrate in presence of [gamma33P]-ATP by HotSpot assay relative to control
[14] = molecular target: Homeodomain-interacting protein kinase 1 (Homo sapiens) (UniProt Q86Z02); assay: Inhibition of human HIPK1 at 1 uM using MBP as substrate in presence of [gamma33P]-ATP by HotSpot assay relative to control
[15] = molecular target: TGF-beta receptor type-2 (Homo sapiens) (UniProt P37173); assay: Inhibition of human TGFBR2 at 1 uM using MBP as substrate in presence of [gamma33P]-ATP by HotSpot assay relative to control
NCI-H2228 = assay: Antitumor activity against ALK positive human NCI-H2228 cells xenografted in CB-17/SCID orthotopic brain tumor mouse model assessed as median survival time at 50 mg/kg po administered daily and measured after 64 days (reference value: 28 days); assay type: functional; conditions: time 64 day
[16] = molecular target: Tyrosine-protein kinase ITK/TSK (Homo sapiens) (UniProt Q08881); assay: Inhibition of human ITK at 1 uM using MBP as substrate in presence of [gamma33P]-ATP by HotSpot assay relative to control
[17] = molecular target: Tyrosine-protein kinase Yes (Homo sapiens, UniProt P07947); assay: Inhibition of human YES1 using poly (Glu, Tyr)4:1 as substrate in presence of [gamma33P]-ATP by HotSpot assay
[18] = molecular target: Serine/threonine-protein kinase BRSK1 (Homo sapiens, UniProt Q8TDC3); assay: Inhibition of human BRSK1 using KKKVSRSGLYRSPSMPENLNRPR as substrate in presence of [gamma33P]-ATP by HotSpot assay
[19] = tested on: EML4-ALK (Homo sapiens), Q9UM73+Q9HC35 [F1174V]; conditions: BaF3, dose 200.0 nmol/L, time 3-5 weeks
[20] = molecular target: Tyrosine-protein kinase Lyn (Homo sapiens, UniProt P07948); assay: Inhibition of human LYN using poly (Glu, Tyr)4:1 as substrate in presence of [gamma33P]-ATP by HotSpot assay
KARPAS-299 = assay: Antitumor activity against ALK positive human KARPAS-299 cells xenografted in SCID beige mouse assessed as tumor growth inhibition at 25 mg/kg, po administered once daily for 14 days relative to control; assay type: functional; conditions: time 14 day
[21] = molecular target: Vascular endothelial growth factor receptor 1 (Homo sapiens) (UniProt P17948); assay: Inhibition of human FLT1 at 1 uM using poly (Glu, Tyr)4:1 as substrate in presence of [gamma33P]-ATP by HotSpot assay relative to control
[22] = molecular target: Dual specificity protein kinase CLK1 (Homo sapiens, UniProt P49759); assay: Inhibition of human CLK1 using MBP as substrate in presence of [gamma33P]-ATP by HotSpot assay
[23] = molecular target: Protein kinase C gamma type (Homo sapiens) (UniProt P05129); assay: Inhibition of human PKCG at 1 uM using ERMRPRKRQGSVRRRV as substrate in presence of [gamma33P]-ATP by HotSpot assay relative to control
[24] = tested on: EML4-ALK (Homo sapiens), Q9UM73+Q9HC35 [C1156Y]; conditions: BaF3, time 3-5 weeks
[25] = molecular target: Protein kinase C eta type (Homo sapiens) (UniProt P24723); assay: Inhibition of human PKCeta at 1 uM using ERMRPRKRQGSVRRRV as substrate in presence of [gamma33P]-ATP by HotSpot assay relative to control
Sequence of Protein kinase C eta type (Homo sapiens) (P24723 whole entry): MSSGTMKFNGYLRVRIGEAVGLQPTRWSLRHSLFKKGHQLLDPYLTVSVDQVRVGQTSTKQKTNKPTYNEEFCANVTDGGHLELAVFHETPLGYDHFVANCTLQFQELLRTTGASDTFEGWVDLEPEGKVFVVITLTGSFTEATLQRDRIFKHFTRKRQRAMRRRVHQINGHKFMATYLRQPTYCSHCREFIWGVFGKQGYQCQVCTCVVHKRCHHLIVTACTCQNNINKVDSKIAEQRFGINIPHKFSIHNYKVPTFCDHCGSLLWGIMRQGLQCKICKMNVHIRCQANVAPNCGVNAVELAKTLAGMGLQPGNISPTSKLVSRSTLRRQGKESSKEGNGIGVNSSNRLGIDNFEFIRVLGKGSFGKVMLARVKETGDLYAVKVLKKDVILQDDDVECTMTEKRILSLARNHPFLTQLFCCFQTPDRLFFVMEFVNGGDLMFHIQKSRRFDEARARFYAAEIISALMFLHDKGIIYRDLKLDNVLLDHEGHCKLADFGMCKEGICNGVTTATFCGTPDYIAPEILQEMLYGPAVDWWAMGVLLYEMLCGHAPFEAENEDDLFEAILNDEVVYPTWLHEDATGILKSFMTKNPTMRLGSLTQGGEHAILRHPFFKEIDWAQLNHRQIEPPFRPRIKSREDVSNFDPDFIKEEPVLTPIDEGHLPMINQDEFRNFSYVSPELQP

Sequence of Serine/threonine-protein kinase PLK2 (Homo sapiens) (Q9NYY3 whole entry, looked up): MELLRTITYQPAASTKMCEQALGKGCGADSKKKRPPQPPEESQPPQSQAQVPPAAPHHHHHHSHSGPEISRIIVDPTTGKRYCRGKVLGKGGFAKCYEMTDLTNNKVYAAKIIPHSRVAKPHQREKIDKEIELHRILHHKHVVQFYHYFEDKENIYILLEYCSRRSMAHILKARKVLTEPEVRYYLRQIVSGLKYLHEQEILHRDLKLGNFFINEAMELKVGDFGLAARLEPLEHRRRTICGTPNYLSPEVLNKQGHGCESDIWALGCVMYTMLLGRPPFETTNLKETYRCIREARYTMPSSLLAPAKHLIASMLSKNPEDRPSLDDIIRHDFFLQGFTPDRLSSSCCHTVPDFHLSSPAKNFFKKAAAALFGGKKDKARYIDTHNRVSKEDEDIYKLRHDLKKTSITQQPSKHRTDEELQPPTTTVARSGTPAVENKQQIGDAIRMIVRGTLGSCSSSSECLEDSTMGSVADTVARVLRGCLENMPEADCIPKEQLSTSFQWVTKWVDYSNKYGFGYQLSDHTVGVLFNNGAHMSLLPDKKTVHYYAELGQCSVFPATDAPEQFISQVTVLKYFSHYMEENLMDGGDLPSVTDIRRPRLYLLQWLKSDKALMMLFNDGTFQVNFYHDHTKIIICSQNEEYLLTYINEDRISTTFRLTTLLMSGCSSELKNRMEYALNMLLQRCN
Sequence of Dual specificity protein kinase CLK1 (P49759 whole entry): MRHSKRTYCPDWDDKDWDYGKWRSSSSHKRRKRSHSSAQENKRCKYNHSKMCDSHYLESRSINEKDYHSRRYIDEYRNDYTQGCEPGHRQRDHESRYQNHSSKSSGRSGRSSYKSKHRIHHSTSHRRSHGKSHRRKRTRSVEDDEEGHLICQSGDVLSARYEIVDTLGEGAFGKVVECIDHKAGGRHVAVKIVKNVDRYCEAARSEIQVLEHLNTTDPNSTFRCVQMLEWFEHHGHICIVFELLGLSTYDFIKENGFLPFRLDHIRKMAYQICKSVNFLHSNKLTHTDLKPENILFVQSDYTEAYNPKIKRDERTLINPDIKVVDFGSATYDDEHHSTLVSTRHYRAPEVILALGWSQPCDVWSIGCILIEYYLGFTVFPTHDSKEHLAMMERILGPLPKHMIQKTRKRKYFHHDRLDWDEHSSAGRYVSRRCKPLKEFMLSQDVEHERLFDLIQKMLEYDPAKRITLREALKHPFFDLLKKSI
Sequence of Tyrosine-protein kinase Yes (P07947 whole entry): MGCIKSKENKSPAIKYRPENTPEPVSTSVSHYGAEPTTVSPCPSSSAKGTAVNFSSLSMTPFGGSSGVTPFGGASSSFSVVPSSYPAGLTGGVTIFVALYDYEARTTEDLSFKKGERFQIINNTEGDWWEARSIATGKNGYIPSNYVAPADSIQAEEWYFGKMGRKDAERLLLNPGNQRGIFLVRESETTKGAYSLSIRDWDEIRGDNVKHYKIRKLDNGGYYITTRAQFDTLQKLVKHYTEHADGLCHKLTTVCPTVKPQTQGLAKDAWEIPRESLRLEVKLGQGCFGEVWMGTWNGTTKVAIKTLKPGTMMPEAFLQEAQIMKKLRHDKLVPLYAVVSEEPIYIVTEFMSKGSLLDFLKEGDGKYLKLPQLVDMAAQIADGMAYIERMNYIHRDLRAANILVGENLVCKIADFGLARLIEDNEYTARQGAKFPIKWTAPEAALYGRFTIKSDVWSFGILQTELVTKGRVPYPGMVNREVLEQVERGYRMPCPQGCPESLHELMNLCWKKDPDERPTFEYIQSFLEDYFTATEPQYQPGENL
Sequence of Serine/threonine-protein kinase BRSK1 (Q8TDC3 whole entry): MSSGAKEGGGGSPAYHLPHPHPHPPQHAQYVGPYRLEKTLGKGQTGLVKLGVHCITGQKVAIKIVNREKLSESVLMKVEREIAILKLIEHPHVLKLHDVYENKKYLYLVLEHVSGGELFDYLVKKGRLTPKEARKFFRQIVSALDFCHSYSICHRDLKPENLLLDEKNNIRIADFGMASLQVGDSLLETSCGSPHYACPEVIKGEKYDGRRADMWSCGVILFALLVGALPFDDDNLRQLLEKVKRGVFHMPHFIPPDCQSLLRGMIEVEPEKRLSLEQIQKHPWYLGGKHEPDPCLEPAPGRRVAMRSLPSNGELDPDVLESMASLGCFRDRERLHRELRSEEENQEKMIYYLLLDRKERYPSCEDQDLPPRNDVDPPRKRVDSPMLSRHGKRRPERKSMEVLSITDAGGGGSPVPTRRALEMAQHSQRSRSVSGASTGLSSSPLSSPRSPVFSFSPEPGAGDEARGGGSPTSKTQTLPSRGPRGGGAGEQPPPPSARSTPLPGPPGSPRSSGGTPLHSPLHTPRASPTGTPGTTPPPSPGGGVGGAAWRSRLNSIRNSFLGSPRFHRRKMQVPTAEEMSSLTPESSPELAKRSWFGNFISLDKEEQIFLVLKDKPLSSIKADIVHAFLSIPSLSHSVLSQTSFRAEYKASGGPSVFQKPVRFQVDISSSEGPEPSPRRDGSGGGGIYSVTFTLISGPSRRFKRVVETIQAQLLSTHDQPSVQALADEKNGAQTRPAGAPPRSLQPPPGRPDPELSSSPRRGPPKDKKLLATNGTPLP
Sequence of Homeodomain-interacting protein kinase 1 (Homo sapiens) (Q86Z02 whole entry, looked up): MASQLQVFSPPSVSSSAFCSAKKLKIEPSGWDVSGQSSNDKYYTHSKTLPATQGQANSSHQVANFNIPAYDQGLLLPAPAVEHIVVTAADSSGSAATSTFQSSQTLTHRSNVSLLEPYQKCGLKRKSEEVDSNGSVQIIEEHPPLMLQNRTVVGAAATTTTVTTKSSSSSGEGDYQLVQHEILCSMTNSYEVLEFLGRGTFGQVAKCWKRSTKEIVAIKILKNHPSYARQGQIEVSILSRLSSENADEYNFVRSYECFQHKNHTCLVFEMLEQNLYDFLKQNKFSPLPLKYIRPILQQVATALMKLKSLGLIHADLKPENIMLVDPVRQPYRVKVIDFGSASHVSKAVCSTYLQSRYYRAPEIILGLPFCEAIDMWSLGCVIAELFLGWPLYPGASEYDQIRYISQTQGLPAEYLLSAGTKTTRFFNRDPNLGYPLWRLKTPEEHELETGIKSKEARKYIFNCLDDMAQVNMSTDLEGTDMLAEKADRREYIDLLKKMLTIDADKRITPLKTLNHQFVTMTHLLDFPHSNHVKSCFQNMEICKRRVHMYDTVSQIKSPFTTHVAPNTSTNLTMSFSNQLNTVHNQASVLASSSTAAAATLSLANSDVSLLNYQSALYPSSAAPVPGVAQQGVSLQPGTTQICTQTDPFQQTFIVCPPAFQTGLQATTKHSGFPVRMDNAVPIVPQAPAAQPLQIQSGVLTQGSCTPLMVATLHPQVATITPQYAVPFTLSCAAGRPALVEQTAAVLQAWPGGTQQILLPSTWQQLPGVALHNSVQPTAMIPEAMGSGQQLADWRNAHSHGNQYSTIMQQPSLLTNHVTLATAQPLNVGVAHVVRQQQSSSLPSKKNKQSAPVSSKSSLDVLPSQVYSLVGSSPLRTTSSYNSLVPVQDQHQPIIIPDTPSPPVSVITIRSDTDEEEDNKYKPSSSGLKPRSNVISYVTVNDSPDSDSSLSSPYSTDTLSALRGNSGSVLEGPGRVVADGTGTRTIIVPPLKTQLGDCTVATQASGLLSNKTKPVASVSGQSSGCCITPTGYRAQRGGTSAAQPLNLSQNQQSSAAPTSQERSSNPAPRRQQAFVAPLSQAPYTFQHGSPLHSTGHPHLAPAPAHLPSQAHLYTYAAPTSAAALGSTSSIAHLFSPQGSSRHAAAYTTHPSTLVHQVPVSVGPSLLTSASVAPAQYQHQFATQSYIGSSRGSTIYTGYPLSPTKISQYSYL
Sequence of Tyrosine-protein kinase ITK/TSK (Homo sapiens) (Q08881 whole entry): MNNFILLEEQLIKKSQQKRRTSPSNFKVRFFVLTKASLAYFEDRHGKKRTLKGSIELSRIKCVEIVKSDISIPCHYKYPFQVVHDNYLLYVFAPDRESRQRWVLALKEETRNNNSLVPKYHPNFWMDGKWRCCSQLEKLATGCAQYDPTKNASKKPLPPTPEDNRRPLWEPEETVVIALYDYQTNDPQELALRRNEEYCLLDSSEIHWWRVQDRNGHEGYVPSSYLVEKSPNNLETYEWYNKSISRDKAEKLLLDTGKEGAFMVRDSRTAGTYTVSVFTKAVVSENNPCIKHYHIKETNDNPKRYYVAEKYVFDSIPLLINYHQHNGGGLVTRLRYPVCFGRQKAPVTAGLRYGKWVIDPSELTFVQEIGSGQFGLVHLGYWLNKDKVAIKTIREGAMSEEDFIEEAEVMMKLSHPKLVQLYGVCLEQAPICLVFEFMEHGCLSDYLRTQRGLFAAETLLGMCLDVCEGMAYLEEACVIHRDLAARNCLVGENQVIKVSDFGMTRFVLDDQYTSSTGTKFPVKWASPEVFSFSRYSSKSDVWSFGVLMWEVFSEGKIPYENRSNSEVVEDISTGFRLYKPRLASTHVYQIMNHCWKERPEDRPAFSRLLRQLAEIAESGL

Question: For COc1cc(N2CCC(N3CCN(C)CC3)CC2)ccc1Nc1ncc(Cl)c(Nc2ccccc2P(C)(C)=O)n1 [BRIGATINIB], which inhibition [1] is on record?
Answer: < 90%

Question: And the inhibition [2]?
Answer: < 90%

Question: And the inhibition [3]?
Answer: < 90%

Question: And the inhibition [4]?
Answer: < 90%

Question: What about the inhibition [5] of the same molecule?
Answer: < 90%

Question: And the IC50 [6]?
Answer: 73 nM

Question: And the IC50 [7]?
Answer: 42 nM

Question: And the inhibition [8]?
Answer: < 90%

Question: And the inhibition [9]?
Answer: < 90%

Question: What about the inhibition [10] of the same molecule?
Answer: < 90%

Question: And the inhibition [11]?
Answer: < 90%

Question: What about the inhibition [12] of the same molecule?
Answer: < 90%

Question: And the Activity (BaF3)?
Answer: 67%

Question: What about the inhibition [13] of the same molecule?
Answer: < 90%

Question: What about the inhibition [14] of the same molecule?
Answer: < 90%

Question: What about the inhibition [15] of the same molecule?
Answer: < 90%

Question: And the MSD (NCI-H2228)?
Answer: >64 days

Question: What about the inhibition [16] of the same molecule?
Answer: < 90%

Question: And the IC50 [17]?
Answer: 19 nM

Question: What about the IC50 [18] of the same molecule?
Answer: 338 nM

Question: What about the inhibition [19] of the same molecule?
Answer: inactive

Question: And the IC50 [20]?
Answer: 241 nM

Question: What about the TGI (KARPAS-299) of the same molecule?
Answer: 87%

Question: What about the inhibition [21] of the same molecule?
Answer: < 90%

Question: And the IC50 [22]?
Answer: 23 nM

Question: What about the inhibition [23] of the same molecule?
Answer: < 90%

Question: And the IC90 [24]?
Answer: 129 nM

Question: What about the inhibition [25] of the same molecule?
Answer: < 90%
